Values after ≈ are worked out from the molar mass of the structure shown. Where two headings read alike, the source gives them in different places.
Columns and labels:
[1] = system: Klebsiella pneumoniae ATCC 10031; assay: Minimum growth inhibitory concentration by agar dilution method; type: cell-based; conditions: for Minimum growth inhibitory concentration: Klebsiella pneumoniae ATCC 10031, agar dilution method at pH 7.0
Excerpt: (§1) Minimum growth inhibitory concentration (μg/ml)
(§2) by agar dilution method at pH 7.0

[2] = system: Shigella sonnei ATCC 9290; assay: as above; type: cell-based; conditions: for Minimum growth inhibitory concentration: Shigella sonnei ATCC 9290; for MIC: Shigella sonnei
Excerpt: as §1, §2

[3] = system: Pseudomonas cepacia ATCC 25608; assay: as above; type: cell-based; conditions: for Minimum growth inhibitory concentration: Pseudomonas cepacia ATCC 25608, agar dilution method at pH 7.0; for MIC: Burkholderia cepacia, ATCC25608, pH 7, read-out: Minimum growth inhibitory concentration
Excerpt: as §1, §2

Escherichia coli ATCC 26 = assay: as above; type: cell-based; conditions: for Minimum growth inhibitory concentration: Escherichia coli ATCC 26, agar dilution method at pH 7.0; for MIC: Escherichia coli, ATCC26, pH 7, read-out: Minimum growth inhibitory concentration
Excerpt: as §1, §2

[4] = system: Staphylococcus aureus ATCC 6538P; assay: as above; type: cell-based; conditions: for Minimum growth inhibitory concentration: Staphylococcus aureus ATCC 6538P; for MIC: Staphylococcus aureus, ATCC6538P
Excerpt: as §1, §2

[5] = system: Proteus vulgaris ATCC 6897; assay: as above; type: cell-based; conditions: for Minimum growth inhibitory concentration: Proteus vulgaris ATCC 6897; for MIC: Proteus vulgaris
Excerpt: as §1, §2

Bacillus subtilis #10707 = assay: as above; type: cell-based; conditions: for Minimum growth inhibitory concentration: Bacillus subtilis #10707, agar dilution method at pH 7.0; for MIC: Bacillus subtilis, pH 7, read-out: Minimum growth inhibitory concentration
Excerpt: as §1, §2

[6] = system: Serratia marcescens ATCC 4003; assay: as above; type: cell-based; conditions: for Minimum growth inhibitory concentration: Serratia marcescens ATCC 4003, agar dilution method at pH 7.0; for MIC: Serratia marcescens, ATCC4003, pH 7, read-out: Minimum growth inhibitory concentration
Excerpt: as §1, §2

[7] = system: Salmonella typhosa ATCC 9992; assay: as above; type: cell-based; conditions: for Minimum growth inhibitory concentration: Salmonella typhosa ATCC 9992, agar dilution method at pH 7.0
various microorganisms = assay: Growth inhibition of various microorganisms / antibacterial activity (in words); type: cell-based; conditions: statement in words
Excerpt: as §1, §2

LD50 (mouse, ip.) = type: in vivo; conditions: in vivo, ip
Excerpt: (§3) | LD50 (mouse, ip.) (mg/kg)

mouse = assay: LD50 (mouse, ip.); type: in vivo
Excerpt: as §3

[8] = agar dilution method at pH 7.0, listed as Vb-1
[9] = agar dilution method at pH 7.0, listed as M-B
[10] = agar dilution method at pH 7.0, listed as M-D

Q: What does the source list for `COC1=C(C)C(=O)C2=C(C1=O)C(COC(N)=O)C1(O)C3C(CN21)N3C` (stereo not drawn) [9-epi-mitomycin B]?
A: Minimum growth inhibitory concentration ([1]; listed as Vb-1): < 0.024 µg/mL; Minimum growth inhibitory concentration [2, 8]: 6.3 µg/mL; Minimum growth inhibitory concentration ([3]; listed as Vb-1): 25 µg/mL; Minimum growth inhibitory concentration (Escherichia coli ATCC 26; listed as Vb-1): 12.5 µg/mL; Minimum growth inhibitory concentration [4, 8]: 0.049 µg/mL; Minimum growth inhibitory concentration [5, 8]: 0.049 µg/mL; Minimum growth inhibitory concentration (Bacillus subtilis #10707; listed as Vb-1): < 0.024 µg/mL; Minimum growth inhibitory concentration ([6]; listed as Vb-1): 3.1 µg/mL; Minimum growth inhibitory concentration ([7]; listed as Vb-1): 6.3 µg/mL; inhibiting activity against the growth of various microorganisms / antibacterial activity (various microorganisms): high inhibiting activity; LD50 (LD50 (mouse, ip.)): 7.5 mg/kg

Q: With `CC1=C(N)C(=O)C2=C(C1=O)N1CC3C(N3C)C1(O)C2COC(N)=O` (stereo not drawn) [9-epi-mitomycin D] as the compound, how does the “Minimum growth inhibitory concentration” value ([1]; listed as Va-1) read?
A: 3.1 µg/mL

Q: And the MIC ([2]; ATCC9290, pH 7, read-out: Minimum growth inhibitory concentration, Shigella sonnei ATCC 9290, agar dilution method at pH 7.0)?
A: > 50 µg/mL

Q: And the MIC [3]?
A: > 50 µg/mL

Q: What about the MIC ([4]; pH 7, read-out: Minimum growth inhibitory concentration, Staphylococcus aureus ATCC 6538P, agar dilution method at pH 7.0) of the same compound?
A: 25 µg/mL (≈ 74.8 µM)

Q: And the MIC ([5]; ATCC6897, pH 7, read-out: Minimum growth inhibitory concentration, Proteus vulgaris ATCC 6897, agar dilution method at pH 7.0)?
A: 12.5 µg/mL (≈ 37.4 µM)

Q: And the MIC (Bacillus subtilis #10707)?
A: 6.3 µg/mL (≈ 18.8 µM)

Q: And the MIC [6]?
A: > 50 µg/mL

Q: And the MIC ([7]; Salmonella enterica, pH 7, read-out: Minimum growth inhibitory concentration)?
A: > 50 µg/mL

Q: And the “inhibiting activity against the growth of various microorganisms / antibacterial activity” value (various microorganisms)?
A: high inhibiting activity

Q: And the LD50 (mouse)?
A: 150 mg/kg

Q: What does the source list for `COC1=C(C)C(=O)C2=C(C1=O)C(COC(N)=O)C1(O)C3C(CN21)N3C` (centres unmarked) [mitomycin B, Mitomycin B]?
A: Minimum growth inhibitory concentration ([1]; listed as M-B): 0.16 µg/mL; Minimum growth inhibitory concentration [2, 9]: 5.0 µg/mL; Minimum growth inhibitory concentration ([3]; listed as M-B): 10 µg/mL; Minimum growth inhibitory concentration (Escherichia coli ATCC 26; listed as M-B): > 10 µg/mL; Minimum growth inhibitory concentration [4, 9]: 0.039 µg/mL; Minimum growth inhibitory concentration [5, 9]: 0.078 µg/mL; Minimum growth inhibitory concentration (Bacillus subtilis #10707; listed as M-B): 0.020 µg/mL; Minimum growth inhibitory concentration ([6]; listed as M-B): 2.5 µg/mL; Minimum growth inhibitory concentration ([7]; listed as M-B): 10.0 µg/mL; LD50 (mouse): 4.5 mg/kg

Q: For `CO[C@@]12[C@H](COC(N)=O)C3=C(C(=O)C(C)=C(N)C3=O)N1C[C@@H]1N[C@@H]12` [mitomycin C, Mitomycin C], which MIC ([1]; Klebsiella pneumoniae, ATCC10031, pH 7, read-out: Minimum growth inhibitory concentration) is on record?
A: 0.0098 µg/mL (≈ 0.0293 µM)

Q: And the MIC ([2]; ATCC9290, pH 7, read-out: Minimum growth inhibitory concentration)?
A: 5 µg/mL (≈ 15 µM)

Q: And the MIC [3]?
A: 10 µg/mL (≈ 29.9 µM)

Q: And the MIC (Escherichia coli ATCC 26)?
A: 10 µg/mL (≈ 29.9 µM)

Q: And the MIC ([4]; pH 7, read-out: Minimum growth inhibitory concentration)?
A: 0.156 µg/mL (≈ 0.467 µM)

Q: And the MIC ([5]; ATCC6897, pH 7, read-out: Minimum growth inhibitory concentration)?
A: 0.078 µg/mL (≈ 0.233 µM)

Q: And the MIC (Bacillus subtilis #10707)?
A: 0.02 µg/mL (≈ 0.0598 µM)

Q: What about the MIC [6] of the same compound?
A: 5 µg/mL (≈ 15 µM)

Q: Which “Minimum growth inhibitory concentration” value ([1]; listed as M-D) does the source give for `CC1=C(N)C(=O)C2=C(C1=O)N1CC3C(N3C)C1(O)C2COC(N)=O` (centres unmarked) [mitomycin D, 7-amino-7-demethoxy mitomycin B] here?
A: 6.3 µg/mL

Q: What about the “Minimum growth inhibitory concentration” value [2, 10] of the same compound?
A: 50 µg/mL

Q: And the MIC (Escherichia coli ATCC 26)?
A: > 50 µg/mL

Q: And the “Minimum growth inhibitory concentration” value [4, 10]?
A: 50 µg/mL

Q: And the “Minimum growth inhibitory concentration” value [5, 10]?
A: 25 µg/mL

Q: And the “Minimum growth inhibitory concentration” value (Bacillus subtilis #10707)?
A: 6.3 µg/mL

Q: What about the “Minimum growth inhibitory concentration” value [7] of the same compound?
A: > 50 µg/mL

Q: And the LD50 (mouse)?
A: 430 mg/kg

Reference: patent US4395558A, “9-Epi-mitomycin B and D compounds” (Kyowa Hakko Kogyo Kabushiki Kaisha, priority 1979, dated 1983)
